From patent US4849441A, “Isoindolin-1-one derivative and antiarrhythmic agent” (Kyowa Hakko Kogyo Co., Ltd., priority 1986, dated 1989) come the findings set out here.

A word on the ED50: it is the midpoint of the dose-response relation.

In one series the test system is chloroform-induced arrhythmia in mice. Nature of the series: Mice chloroform-induced arrhythmia test. The class given is in vivo, mice of dd strain. To be noted: Mus musculus, po, oral administration, effective if < 720 pulses/min, Probit method, read-out: Antiarrhythmic Activity A: chloroform induced arrhythmia in mice (ED50). On the procedure:
The antiarrhythmic activity was examined by arrhythmia test induced with chloroform in mice and by arrhythmia test induced by ligation of dog coronary artery. (A) Mice chloroform-induced arrhythmia test: Using mice of dd strain, weighing 18 to 22 g and fasting and abstaining from water for 4 to 5 hours, an antiarrhythmic effect was evaluated in accordance with the method of Block [Life Science, 28, 2623 (1981)]. That is, after orally administrating each compound, the mice were put in a chloroform atmosphere and taken out after respiratory standstill. Electrocardiogram was measured by the standard limb induction method; in the case when frequent pulse exceeding 720 pulses/min. is continued for 30 seconds or longer, it was judged ineffective and in the case of a heart beat number being less than 720 pulses/min., it was judged effective. ED50 was determined by the Probit method.
For `CCN(CC)CCN1C(=O)c2ccccc2C1c1ccccc1N` (stereo not drawn) [Compound 1, 3-(2-Aminophenyl)-2-(2-diethylaminoethyl)isoindolin-1-one], the ED50 amounted to 33 mg/kg.

Regarding `CN(C)CCCN1C(=O)c2ccccc2C1c1ccccc1N` (stereo not drawn) [Compound 2], the 50% effective dose (ED50) is > 100 mg/kg.

As for `CCN(CC)CCCN1C(=O)c2ccccc2C1c1ccccc1N` (stereo not drawn) [Compound 3, 3-(2-Aminophenyl)-2-(3-diethylaminopropyl)isoindolin-1-one], the ED50 is < 100 mg/kg.

`CCN(CC)CCCCN1C(=O)c2ccccc2C1c1ccccc1N` (stereo not drawn) [Compound 4, 3-(2-Aminophenyl)-2-(4-diethylaminobutyl)isoindolin-1-one]: the ED50 came out at 47 mg/kg.

As to `CCCCN(CCCC)CCCN1C(=O)c2ccccc2C1c1ccccc1N` (stereo not drawn) [Compound 5, 2-(3-dibutylaminopropyl)-3-(2-aminophenyl)isoindolin-1-one], the ED50 was 35 mg/kg.

Regarding `CC(C)NCCN1C(=O)c2ccccc2C1c1ccccc1N` (stereo not drawn) [Compound 6, 3-(2-Aminophenyl)-2-(2-isopropylaminoethyl)isoindolin-1-one], the ED50 came to 36 mg/kg.

Regarding `CCN(CC)CCN1C(=O)c2ccccc2C1c1ccccc1NC` (stereo not drawn) [Compound 7, 2-(2-Diethylaminoethyl)-3-(2-methylaminophenyl)isoindolin-1-one], the ED50 turned out to be 14 mg/kg.

Turning to `CCN(CC)CCN1C(=O)c2ccccc2C1c1ccccc1N(C)C` (stereo not drawn) [Compound 8, 2-(2-Diethylaminoethyl)-3-(2-dimethylaminophenyl)isoindolin-1-one], the ED50 worked out at 36 mg/kg.

On to `CCNc1ccccc1C1c2ccccc2C(=O)N1CCN(CC)CC` (stereo not drawn) [Compound 9, 2-(2-Diethylaminoethyl)-3-(2-ethylaminophenyl)isoindolin-1-one], for which the ED50 stood at 63 mg/kg.

Another series concerns coronary artery ligation-induced arrhythmia in dog. Kind of series: Dog coronary artery ligation-induced arrhythmia test. The series is classed as in vivo, dogs. To be noted: Canis lupus familiaris, intravenous, 16 h after ligation, effective if 50% or more of total pulses restored to sinus rhythm, dose effective in 50% or more cases, read-out: Antiarrhythmic Activity B: coronary artery ligation induced arrhythmia in dog (MED). The source says:
The antiarrhythmic activity was examined by arrhythmia test induced with chloroform in mice and by arrhythmia test induced by ligation of dog coronary artery.
(B) Dog coronary artery ligation-induced arrhythmia test:
Using dogs weighing 7 to 12 kg, coronary artery ligation-induced arryhthmia occurred in accordance with the Harris method [Circulation, 1, 1318 (1950)]. Namely, the left fifth costa was subjected to thoraco-laparotomy.After the pericardium was incised, the left fore descending branch of the coronary artery was exfoliated around the first side branch and ligated. Sixteen hours after, a test compound was intravenously administered to dogs with multiple ventricular arrhythmic pulses being 90% or more than the total pulses. Then, electrocardiogram was recorded without anesthesia under free movement, and a case where 50% or more of the total pulses was restored to sinus rhythm was judged effective.
As to `CCN(CC)CCN1C(=O)c2ccccc2C1c1ccccc1N` (stereo not drawn) [Compound 1, 3-(2-Aminophenyl)-2-(2-diethylaminoethyl)isoindolin-1-one], the minimal effective dose stood at 1.25 mg/kg.

Turning to `CN(C)CCCN1C(=O)c2ccccc2C1c1ccccc1N` (stereo not drawn) [Compound 2], the minimal effective dose was 5 mg/kg.

For the molecule `CCN(CC)CCCN1C(=O)c2ccccc2C1c1ccccc1N` (stereo not drawn) [Compound 3, 3-(2-Aminophenyl)-2-(3-diethylaminopropyl)isoindolin-1-one], the minimal effective dose came to 2.5 mg/kg.

As to `CCN(CC)CCCCN1C(=O)c2ccccc2C1c1ccccc1N` (stereo not drawn) [Compound 4, 3-(2-Aminophenyl)-2-(4-diethylaminobutyl)isoindolin-1-one], the minimal effective dose is 1.25 mg/kg.

Take `CCCCN(CCCC)CCCN1C(=O)c2ccccc2C1c1ccccc1N` (stereo not drawn) [Compound 5, 2-(3-dibutylaminopropyl)-3-(2-aminophenyl)isoindolin-1-one]: the minimal effective dose came to 1.25 mg/kg.

Regarding `CC(C)NCCN1C(=O)c2ccccc2C1c1ccccc1N` (stereo not drawn) [Compound 6, 3-(2-Aminophenyl)-2-(2-isopropylaminoethyl)isoindolin-1-one], the minimal effective dose was 2.5 mg/kg.

Regarding `CCN(CC)CCN1C(=O)c2ccccc2C1c1ccccc1NC` (stereo not drawn) [Compound 7, 2-(2-Diethylaminoethyl)-3-(2-methylaminophenyl)isoindolin-1-one], the minimal effective dose was > 2.5 mg/kg.

For `CCN(CC)CCN1C(=O)c2ccccc2C1c1ccccc1N(C)C` (stereo not drawn) [Compound 8, 2-(2-Diethylaminoethyl)-3-(2-dimethylaminophenyl)isoindolin-1-one], the minimal effective dose turned out to be 2.5 mg/kg.

In the case of `CCNc1ccccc1C1c2ccccc2C(=O)N1CCN(CC)CC` (stereo not drawn) [Compound 9, 2-(2-Diethylaminoethyl)-3-(2-ethylaminophenyl)isoindolin-1-one], the minimal effective dose is > 5 mg/kg.

In a further series the test system is dd, male mice. Nature of the series: Acute toxicity test (mortality 7 days after administration). To be noted: mortality at 7 days, minimum lethal dosage. The class given is in vivo. On the procedure:
Groups each consisting of three dd, male mice having body weights of 20±1 g were used, and the compound of the present invention was intraperitoneally administered. Mortality 7 days after the administration was observed and the minimum lethal dosage (MLD) was determined.
Consider `CCN(CC)CCN1C(=O)c2ccccc2C1c1ccccc1N` (stereo not drawn) [Compound 1, 3-(2-Aminophenyl)-2-(2-diethylaminoethyl)isoindolin-1-one], for which the “Acute Toxicity (MLD) i.p.” value was > 100 mg/kg.

For `CN(C)CCCN1C(=O)c2ccccc2C1c1ccccc1N` (stereo not drawn) [Compound 2], the “Acute Toxicity (MLD) i.p.” value is given as > 100 mg/kg.

Regarding `CCN(CC)CCCN1C(=O)c2ccccc2C1c1ccccc1N` (stereo not drawn) [Compound 3, 3-(2-Aminophenyl)-2-(3-diethylaminopropyl)isoindolin-1-one], the “Acute Toxicity (MLD) i.p.” value is on record as > 100 mg/kg.

Turning to `CCN(CC)CCCCN1C(=O)c2ccccc2C1c1ccccc1N` (stereo not drawn) [Compound 4, 3-(2-Aminophenyl)-2-(4-diethylaminobutyl)isoindolin-1-one], the “Acute Toxicity (MLD) i.p.” value is listed as > 100 mg/kg.

Consider `CCCCN(CCCC)CCCN1C(=O)c2ccccc2C1c1ccccc1N` (stereo not drawn) [Compound 5, 2-(3-dibutylaminopropyl)-3-(2-aminophenyl)isoindolin-1-one], for which the “Acute Toxicity (MLD) i.p.” value is 25 mg/kg.

For the molecule `CC(C)NCCN1C(=O)c2ccccc2C1c1ccccc1N` (stereo not drawn) [Compound 6, 3-(2-Aminophenyl)-2-(2-isopropylaminoethyl)isoindolin-1-one], the “Acute Toxicity (MLD) i.p.” value is listed as > 100 mg/kg.

On to `CCN(CC)CCN1C(=O)c2ccccc2C1c1ccccc1NC` (stereo not drawn) [Compound 7, 2-(2-Diethylaminoethyl)-3-(2-methylaminophenyl)isoindolin-1-one], for which the “Acute Toxicity (MLD) i.p.” value was found to be 50 mg/kg.

In the case of `CCN(CC)CCN1C(=O)c2ccccc2C1c1ccccc1N(C)C` (stereo not drawn) [Compound 8, 2-(2-Diethylaminoethyl)-3-(2-dimethylaminophenyl)isoindolin-1-one], the “Acute Toxicity (MLD) i.p.” value was 50 mg/kg.

Take `CCNc1ccccc1C1c2ccccc2C(=O)N1CCN(CC)CC` (stereo not drawn) [Compound 9, 2-(2-Diethylaminoethyl)-3-(2-ethylaminophenyl)isoindolin-1-one]: the “Acute Toxicity (MLD) i.p.” value is given as > 100 mg/kg.

The test system of another series is dd, male mice. The series is described as above. The series is classed as in vivo. To be noted: mortality at 7 days, minimum lethal dosage. The source holds these as a separate data set.
Regarding `CCN(CC)CCN1C(=O)c2ccccc2C1c1ccccc1N` (stereo not drawn) [Compound 1, 3-(2-Aminophenyl)-2-(2-diethylaminoethyl)isoindolin-1-one], the “Acute Toxicity (MLD) p.o.” value was > 300 mg/kg.

For the molecule `CN(C)CCCN1C(=O)c2ccccc2C1c1ccccc1N` (stereo not drawn) [Compound 2], the “Acute Toxicity (MLD) p.o.” value is recorded as > 300 mg/kg.

Take `CCN(CC)CCCN1C(=O)c2ccccc2C1c1ccccc1N` (stereo not drawn) [Compound 3, 3-(2-Aminophenyl)-2-(3-diethylaminopropyl)isoindolin-1-one]: the “Acute Toxicity (MLD) p.o.” value came to 100 mg/kg.

With `CCN(CC)CCCCN1C(=O)c2ccccc2C1c1ccccc1N` (stereo not drawn) [Compound 4, 3-(2-Aminophenyl)-2-(4-diethylaminobutyl)isoindolin-1-one], the “Acute Toxicity (MLD) p.o.” value worked out at 200 mg/kg.

As for `CCCCN(CCCC)CCCN1C(=O)c2ccccc2C1c1ccccc1N` (stereo not drawn) [Compound 5, 2-(3-dibutylaminopropyl)-3-(2-aminophenyl)isoindolin-1-one], the “Acute Toxicity (MLD) p.o.” value was found to be 100 mg/kg.

Turning to `CC(C)NCCN1C(=O)c2ccccc2C1c1ccccc1N` (stereo not drawn) [Compound 6, 3-(2-Aminophenyl)-2-(2-isopropylaminoethyl)isoindolin-1-one], the “Acute Toxicity (MLD) p.o.” value is listed as 300 mg/kg.

Consider `CCN(CC)CCN1C(=O)c2ccccc2C1c1ccccc1NC` (stereo not drawn) [Compound 7, 2-(2-Diethylaminoethyl)-3-(2-methylaminophenyl)isoindolin-1-one], for which the “Acute Toxicity (MLD) p.o.” value worked out at 50 mg/kg.

As for `CCN(CC)CCN1C(=O)c2ccccc2C1c1ccccc1N(C)C` (stereo not drawn) [Compound 8, 2-(2-Diethylaminoethyl)-3-(2-dimethylaminophenyl)isoindolin-1-one], the “Acute Toxicity (MLD) p.o.” value is reported as 100 mg/kg.

In the case of `CCNc1ccccc1C1c2ccccc2C(=O)N1CCN(CC)CC` (stereo not drawn) [Compound 9, 2-(2-Diethylaminoethyl)-3-(2-ethylaminophenyl)isoindolin-1-one], the “Acute Toxicity (MLD) p.o.” value turned out to be 200 mg/kg.
